Laboratory results: ChEMBL document CHEMBL5634150, “Design, synthesis and biological evaluation of novel dihydroquinolin-4(1H)-one derivatives as novel tubulin polymerization inhibitors” (Eur J Med Chem, 2023)
Converted amounts (≈) assume the structure as drawn. The source made the active and inactive calls. No cut-off for these calls is given here.

How the values were obtained:
A549 [1] = assay: Antiproliferative activity against human A549 cells assessed as inhibition of cell growth at 0.1 uM measured after 72 hrs by MTT assay relative to control; format: functional
A549 [2] = assay: Antiproliferative activity against human A549 cells assessed as inhibition of cell growth at 0.01 uM measured after 72 hrs by MTT assay relative to control; format: functional
A549 [3] = assay: Antiproliferative activity against human A549 cells assessed as inhibition of cell growth measured after 72 hrs by MTT assay; format: functional, cell-based; details: A549, 72 h
HepG2 = assay: Antiproliferative activity against human HepG2 cells assessed as inhibition of cell growth measured after 72 hrs by MTT assay; format: functional, cell-based; details: HepG2, 72 h
A549/TR = assay: Antiproliferative activity against human A549/Taxol cells assessed as inhibition of cell growth measured after 72 hrs by MTT assay; format: functional, cell-based
[4] = Resistance index, ratio of IC50 for antiproliferative activity against human A549/Taxol cells to IC50 for antiproliferative activity against human A549 cells; format: functional
Tubulin (Homo sapiens) [5] = target: T1, Tubulin (Homo sapiens) (UniProt P68371+Q9H4B7+P0DPH7+P68366+Q13509+Q71U36+P04350+Q3ZCM7+P07437+P68363+Q9BQE3+Q6PEY2+Q13885+Q9BVA1+Q9BUF5); assay: Inhibition of tubulin polymerization in human K562 cells assessed as microtubule destruction network at 1.5 to 6 uM incubated for 48 hrs by immunofluorescence staining based inverted microscopic analysis; format: cell-based; details: dose 1.5-6 µM
Tubulin (Homo sapiens) [6] = target: T1, Tubulin (Homo sapiens); assay: (§1) Inhibition of tubulin polymerization (unknown origin) preincubated for 5 mins and measured every 5 mins for 60 mins by absorbance based analysis; format: protein-complex assay; details: dose 5-10 µM, time 65.0 min
Tubulin = assay: as §1; format: protein-complex assay, Homo sapiens
Tubulin (Homo sapiens) [7] = target: T1, Tubulin (Homo sapiens); assay: Inhibition of [3H]colchicine binding to tubulin (unknown origin) at 5 uM incubated for 2 hrs by scintillation counter analysis relative to control; format: protein-complex assay
K562 [8] = assay: Induction of apoptosis in human K562 cells at 6 nM measured after 48 hrs by Annexin V-FITC/7-AAD staining based flow cytometric analysis relative to control; format: functional
K562 [9] = assay: Induction of apoptosis in human K562 cells assessed as nuclear fragmentation at 1.5 to 6 nM incubated for 24 hrs by Hoechst 33342 staining based fluorescence microscopic analysis; format: functional, cell-based; details: dose 1.5-6 nM
K562 [10] = assay: Induction of apoptosis in human K562 cells assessed as chromatin aggregation at 1.5 to 6 nM incubated for 24 hrs by Hoechst 33342 staining based fluorescence microscopic analysis; format: functional, cell-based; details: dose 1.5-6 nM
K562 [11] = assay: Induction of apoptosis in human K562 cells assessed as increase in bad level at upto 6 nM measured after 48 hrs by Western blot analysis; format: functional, cell-based
K562 [12] = assay: Induction of apoptosis in human K562 cells assessed as increase in bax level at upto 6 nM measured after 48 hrs by Western blot analysis; format: functional, cell-based
K562 [13] = assay: Induction of apoptosis in human K562 cells assessed as downregulation of bcl-2 level at upto 6 nM measured after 48 hrs by Western blot analysis; format: functional, cell-based
K562 [14] = assay: Induction of apoptosis in human K562 cells assessed as downregulation of bcl-xl level at upto 6 nM measured after 48 hrs by Western blot analysis; format: functional, cell-based
K562 [15] = assay: Induction of cell cycle arrest in human K562 cells assessed as accumulation of cells at G1 phase at 1.5 nM incubated overnight by PI staining based flow cytometry analysis (reference value: 78.45%); format: functional
K562 [16] = assay: Induction of cell cycle arrest in human K562 cells assessed as accumulation of cells at G1 phase at 3 nM incubated overnight by PI staining based flow cytometry analysis (reference value: 78.45%); format: functional
K562 [17] = assay: Induction of cell cycle arrest in human K562 cells assessed as accumulation of cells at G1 phase at 6 nM incubated overnight by PI staining based flow cytometry analysis (reference value: 78.45%); format: functional
K562 [18] = assay: Induction of cell cycle arrest in human K562 cells assessed as accumulation of cells at S phase at 6 nM incubated overnight by PI staining based flow cytometry analysis (reference value: 15.98%); format: functional
K562 [19] = assay: Induction of cell cycle arrest in human K562 cells assessed as accumulation of cells at G2/M phase at 1.5 nM incubated overnight by PI staining based flow cytometry analysis (reference value: 5.57%); format: functional
K562 [20] = assay: Induction of cell cycle arrest in human K562 cells assessed as accumulation of cells at G2/M phase at 3 nM incubated overnight by PI staining based flow cytometry analysis (reference value: 5.57%); format: functional
K562 [21] = assay: Induction of cell cycle arrest in human K562 cells assessed as accumulation of cells at G2/M phase at 6 nM incubated overnight by PI staining based flow cytometry analysis (reference value: 5.57%); format: functional
Cell membrane = assay: Induction of mitochondrial membrane depolarization in human K562 cells assessed as decrease in red fluorescence intensity at incubated for 48 hrs by JC-1 staining based flow cytometry; format: cell membranes; details: dose 1.5-6 nM
MDA-MB-231 = assay: Inhibition of cell invasion in human MDA-MB-231 cells at 1.5 to 6 nM measured after 48 hrs by crystal violet staining microscopy based transwell assay; format: functional; details: dose 1.5-6 nM
K562 [22] = assay: Induction of ROS generation in human K562 cells incubated for 24 hrs by DCFH-DA staining based assay; format: functional, cell-based; details: dose 1.5-6 nM
HUVEC [23] = assay: Anti-angiogenesis activity in HUVEC cells assessed as reduction in […] at 400 nM measured after 24 hrs by wound healing assay relative to control; format: functional, Homo sapiens; parameters: scale not given: the % may be the effect or the level left
HUVEC [24] = assay: Anti-angiogenesis activity in HUVEC cells at 1.5 to 6 nM measured after 24 hrs by wound healing assay; format: functional, cell-based; details: Homo sapiens, dose 1.5-6 nM
[25] = Aqueous solubility of the compound by HPLC analysis; format: physicochemical; details: aqueous (not further specified)
[26] = Metabolic stability in mouse plasma assessed as half life at 1 uM and measured upto 3 hrs by LC-MS/MS analysis; format: ADME, cell-free
[27] = Metabolic stability in mouse liver microsomes assessed as half life at 100 uM measure upto 60 mins in presence of NADPH by LC-MS/MS analysis; format: ADME, Microsome
H22 [28] = assay: Antitumor activity against mouse H22 cells allografted in mouse model assessed as inhibition of tumor weight administered as iv dose for once daily for 3 weeks; format: functional, organism-based; details: dose 10-20 mg/kg
[29] = Toxicity in mouse assessed as effect on heart at 20 mg/kg by H and E staining based microscopic analysis; format: organism-based; details: in vivo
[30] = Toxicity in mouse assessed as effect on liver at 20 mg/kg by H and E staining based microscopic analysis; format: organism-based; details: in vivo
[31] = Toxicity in mouse assessed as effect on spleen at 20 mg/kg by H and E staining based microscopic analysis; format: organism-based; details: in vivo
[32] = Toxicity in mouse assessed as effect on lung at 20 mg/kg by H and E staining based microscopic analysis; format: organism-based; details: in vivo
[33] = Toxicity in mouse assessed as effect on kidney at 20 mg/kg by H and E staining based microscopic analysis; format: organism-based; details: in vivo
H22 [34] = assay: Antitumor activity against mouse H22 cells allografted in mouse model assessed as decrease in Ki67 positive cells at 20 mg/kg by immunohistochemistry analysis; format: functional, organism-based
H22 [35] = assay: Antitumor activity against mouse H22 cells allografted in mouse model assessed as decrease in MVD cells at 20 mg/kg by immunohistochemistry analysis; format: functional, organism-based

CCn1ccc2cc(N3CCC(=O)c4c3cc(OC)c(OC)c4OC)ccc21
inhibition at 0.1 µM (A549 [1]): 78.3%
inhibition at 0.01 µM (A549 [2]): 73.6%
IC50 (A549 [3]): 0.008 µM
IC50 (HepG2): 0.009 µM
IC50 (A549/TR): 0.043 µM
Ratio IC50 [4]: 5.38
inhibition (Tubulin (Homo sapiens) [5]): Active
inhibition (Tubulin (Homo sapiens) [6]): Dose-Dependent Effect
IC50 (Tubulin): 3.06 µM
inhibition (Tubulin (Homo sapiens) [7]): 75.9%
Activity (K562 [8]): 45.82%
Activity (K562 [9]): Active
Activity (K562 [10]): Active
Activity (K562 [11]): Active
Activity (K562 [12]): Active
Activity (K562 [13]): Active
Activity (K562 [14]): Active
Activity (K562 [15]): 66.8%
Activity (K562 [16]): 59.63%
Activity (K562 [17]): 47.52%
Activity (K562 [18]): 30.18%
Activity (K562 [19]): 10.62%
Activity (K562 [20]): 12.33%
Activity (K562 [21]): 22%
Activity (Cell membrane): Dose-Dependent Effect
inhibition (MDA-MB-231): Active
Activity (K562 [22]): Dose-Dependent Effect
Activity (HUVEC [23]): <50%
Activity (HUVEC [24]): Active
solubility [25]: 6.68 µg/mL (≈ 17.6 µM)
half-life at 1 µM [26]: > 180 min
half-life at 100 µM [27]: 10.7 min
Activity (H22 [28]): Dose-Dependent Effect
Activity [29]: Non-Toxic
Activity [30]: Non-Toxic
Activity [31]: Non-Toxic
Activity [32]: Non-Toxic
Activity [33]: Non-Toxic
Activity (H22 [34]): Active
Activity (H22 [35]): Active
